From US11440880B2, “Thalidomide analogs and methods of use” (The USA, as represented by the Secretary, Department of …, priority 2015, dated 2022)

Tests used:
[1] = test system: fli1:EGFP zebrafish embryos (intersegmental vessel growth); test: fli1:EGFP zebrafish embryo angiogenesis assay; type: in vivo; parameters: fli1:EGFP angiogenesis n (survived/tested): concentration or dose not given beside the values; conditions: for minimal effective concentration: Danio rerio, lowest concentration producing an effect, compounds not producing an effect shown at the highest evaluated concentration; for fli1:EGFP angiogenesis n (survived/tested): embryos alive after 24 hours of exposure
How it was run: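 fli1:EGFP embryos grown 24 hpf, dechorionated and exposed to compound or vehicle over a range of concentrations for up to 24 h, with CPS49 as positive control. Imaged at 48 hpf for intersegmental vessel formation and growth; survival after 24 h exposure recorded, and values reflect the lowest concentration producing an effect.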

[2] = test system: mpo:GFP zebrafish embryos (neutrophil migration to the wound site); test: mpo:GFP zebrafish fin-clip neutrophil migration (inflammation) assay; type: in vivo; parameters: mpo:GFP inflammation n (survived/tested): concentration or dose not given beside the values; conditions: for minimal effective concentration: Danio rerio, Neutrophil, lowest concentration producing an effect, compounds not producing an effect shown at the highest evaluated concentration; for mpo:GFP inflammation n (survived/tested): embryos survived/tested at the concentration given
From the text: Zebrafish embryology: The use of zebrafish embryo (Danio rerio) bioassays as a preclinical model in the classification of novel compounds has increased in recent years due to several factors including; low cost, ease of maintenance, speed of embryonic development, transparency of the embryos and genetic conservation between zebrafish and humans (Howe et al., Nature 2013; 496:498; Therapontos et al., PNAS 2009, 106:8573; Mahony et al., PNAS 2013, 110:12703; Beedie et al., Oncotarget 2016, 7(22):33237; Beedie et al., Mol. Cancer Ther. 2015, 14(10):2228). Two established zebrafish reporter lines were used—the fli1:EGFP line, where the fli1 promoter drives expression of enhanced green fluorescent protein within the developing vasculature (Lawson et al., 2002), and the Tg(mpo::EGFP) line (also known as mpo:GFP), which expresses green fluorescent protein via the neutrophil specific myeloperoxidase promoter (Renshaw et al., Blood 2006, 108:3976). The use of these zebrafish transgenic reporter lines allows for the identification of potential anti-angiogenic and anti-inflammatory compounds respectively, and both have been used previously to successfully classify the action of thalidomide analogs (Therapontos et al., 2009; Mahony et al., 2013; Beedie et al., Oncotarget 2016, 7(22):33237; Beedie et al., Mol. Cancer Ther. 2015, 14(10):2228). Zebrafish embryos were treated with analogs as previously described (Mahony et al., 2013). Briefly, fli1:EGFP embryos were collected and embryos were allowed to develop for 24 hours. Embryos were dechorionated manually and exposed to test compounds or vehicle control for a further 24 hours, imaged and analyzed for intersegmental vessel (ISV) growth. At 24 hours post fertilisation (hpf) the ISVs were ideal to study to visualize and analyze the actions of compounds on angiogenesis. At this time point ISVs were rapidly forming beneath the developing head, over the body and had yet to form in the tail (Lawson and Weinstein, Developmental Biology 2002, 248:307; Therapontos and Vargesson, Developmental Dynamics 2010, 239:2761). Additionally, these sprouts would go on to form the bilateral dorsal longitudinal anastomotic vessels. By treating before this fusion and formation occurs, the effect of each compound on the individual vessels as well as overall patterning structural integrity (Isogai et al., Development 2003, 130:5281) could be determined. Tg(mpo::EGFP) were tail fin clipped as previously detailed (Renshaw et al., 2006; Mahony et al., 2013; Beedie et al., Oncotarget 2016, 7(22):33237; Beedie et al., Mol. Cancer Ther. 2015, 14(10):2228) and incubated with test compounds or vehicle control at 72 hours post fertilization. Fish were imaged at 24 hours and the number of migratory neutrophils present at the wound site were counted. Compounds inducing an at least 50% reduction of neutrophils to the wound site were considered to have anti-inflammatory properties in this system. All larvae were assessed for viability and morphological integrity.
To assess the immunomodulatory effects of the thalidomide analogs, the mpo:gfp transgenic zebrafish line (Renshaw et al., Blood 2006, 108:3976-3978) was utilized because it is an accepted model of inflammation, and can be used to test the effect of anti-inflammatory agents. These embryos express GFP-tagged myeloperoxidase, where green fluorescence marks the neutrophil cells involved in the inflammatory response process, for example following injury, from 72 hours post fertilization (Renshaw et al., 2006; Mahony et al., 2013; Beedie et al., Oncotarget 2016, 7(22):33237). At 72 hpf the dorsal third of the tail fin was removed and the embryos were immersed in the desired compound or vehicle (FIGS. 5A-5C). The embryos were examined for the effect on the inflammatory response quantified as an induction and migration of neutrophils to the wound site 24 hours later.

TNF-α protein = TNF-α protein level (ELISA) in LPS-challenged RAW 264.7 cells; type: cell-based, mouse; parameters: key: NS=not significant; a “+” sign=anti-inflammatory or increased cell numbers; a “−” sign=cell toxicity or pro-inflammatory; conditions: LPS 30 or 60 ng/mL, 24 h
How it was run: (§1)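 RAW 264.7 cells pretreated 1 h with compound in DMSO vehicle, then challenged with LPS (30 or 60 ng/mL) for 24 h at 37° C. Conditioned-media nitrite by Griess (520 nm, sodium nitrite standard curve, 1.5 μM cutoff) in μM; mouse TNF-α by ELISA as pg/ml or % change from control.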

[3] = test system: nitrite levels in the culture media; test: Nitrite level (Griess Reagent System) in LPS-challenged RAW 264.7 cells; type: cell-based, mouse; parameters: key: NS=not significant; a “+” sign=anti-inflammatory or increased cell numbers; a “−” sign=cell toxicity or pro-inflammatory; conditions: LPS 30 or 60 ng/mL, 24 h
How it was run: as §1

RAW 264.7 cells = test: Cell viability (CellTiter 96 AQueous One) of LPS-challenged RAW 264.7 cells; type: cell-based, mouse; parameters: key: NS=not significant; a “+” sign=anti-inflammatory or increased cell numbers; a “−” sign=cell toxicity or pro-inflammatory
How it was run: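 RAW 264.7 murine macrophages pretreated 1 h with compound or DMSO vehicle, then challenged with LPS (serotype 055:B5) at 30 or 60 ng/mL final for 24 h. After media replacement, viability measured by tetrazolium (MTS) conversion, absorbance at 490 nm, reported as O.D.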

Structure (SMILES) | minimal effective concentration [1] | fli1:EGFP angiogenesis n (survived/tested) [1] | minimal effective concentration [2] | mpo:GFP inflammation n (survived/tested) [2] | TNF-α (TNF-α protein; 1 μM) | TNF-α (TNF-α protein; 10 μM) | TNF-α (TNF-α protein; 30 μM) | Nitrite ([3]; 1 μM) | Nitrite ([3]; 10 μM) | Nitrite ([3]; 30 μM) | Viability (RAW 264.7 cells; 1 μM) | Viability (RAW 264.7 cells; 10 μM) | Viability (RAW 264.7 cells; 30 μM)
O=C1c2cccc([N+](=O)[O-])c2CN1c1nc2ccc(C(F)(F)F)cc2s1 [Compound 63] | 200 µg/mL | 6/23 | 100 µg/mL | 12/20 | NS | NS | NS | − | − | − | NS | NS | −
CC1(C)S[C@@H]2[C@H](N3C(=O)c4ccccc4C3=O)C(=O)N2[C@H]1C(=O)O [Compound 64] | 10 µg/mL | 8/15 | 10 µg/mL | 8/15 | NS | NS | NS | NS | NS | NS | NS | NS | NS
CC1(C)S[C@@H]2[C@H](N3Cc4ccccc4C3=O)C(=O)N2[C@H]1C(=O)O [Compound 65, (1)-(2S,5R,6R)-3,3-Dimethyl-7-oxo-6-(1-oxo-1,3-dihydro-1H-isoindol-2-yl)-4-thia-1-azabicyclo[3.2.0]heptane-2-carboxylic acid] | 200 µg/mL | 13/13 | 200 µg/mL | 10/20 | − | − | − | NS | NS | NS | NS | NS | NS
FC(F)(F)c1ccc(/N=C2/c3ccccc3CN2c2ccc(C(F)(F)F)cn2)nc1 [Compound 66] | 100 µg/mL | 15/15 | 100 µg/mL | 6/15 | NS | NS | + | NS | NS | + | − | NS | −
FC(F)(F)c1ccnc(/N=C2/c3ccccc3CN2c2cc(C(F)(F)F)ccn2)c1 [Compound 67, N-(4-Trifluoromethylpyridin-2-yl)-1-imino(4-trifluoromethylpyridin-2-yl)-isoindoline] | 10 µg/mL | 13/22 | 200 µg/mL | 6/15 | NS | NS | NS | NS | NS | + | NS | NS | NS
O=C1c2ccccc2CN1c1ccc(C(F)(F)F)cc1 [Compound 68] | 10 µg/mL | 22/34 | 100 µg/mL | 5/15 | NS | NS | NS | NS | NS | NS | NS | NS | NS
O=C1c2ccccc2CN1C12CC3CC(CC(C3)C1)C2 [Compound 69] | 10 µg/mL | 6/14 | 200 µg/mL | 8/17 | NS | NS | NS | NS | NS | NS | NS | NS | NS
O=C1c2ccccc2CN1CC12CC3CC(CC(C3)C1)C2 [Compound 70] | 10 µg/mL | 8/10 | 200 µg/mL | 10/15 | NS | + | + | NS | NS | + | NS | NS | NS
O=C1c2ccccc2CN1C1C2CC3CC(C2)CC1C3 (centres unmarked) [Compound 72, 2,3-Dihydro-2-(tricyclo[3.3.1.1^3,7]dec-2-yl)-1H-isoindol-1-one] | 200 µg/mL | 9/20 | 10 µg/mL | 6/15 | + | NS | + | NS | NS | + | + | NS | −
O=C1c2ccccc2CN1C12CC3CC(CC1C3)C2 [Compound 73] | 10 µg/mL | 6/12 | 10 µg/mL | 7/13 | NS | NS | + | NS | + | + | NS | NS | −
CC(N1Cc2ccccc2C1=S)C12CC3CC(CC(C3)C1)C2 (centres unmarked) [Compound 74, 2,3-Dihydro-2-[1-(1-tricyclo[3.3.1.1^3,7]dec-1-yl)ethyl]-1H-isoindol-1-thione] | 10 µg/mL | 9/15 | 200 µg/mL | 6/14 | NS | NS | NS | NS | NS | + | NS | NS | NS
